Measurements taken from patent US4130709A, “Pleuromutilin glycoside derivatives” (Eli Lilly and Company, priority 1977, dated 1978).

System: Staphylococcus aureus (H-Heatley) NRRL B-314
Assay: in vitro turbidometric assay (Autoturb Microbiological Assay System) against Staphylococcus aureus
Format: cell-based
Conditions: nutrient broth pH 7, approximately 4 hours at 37° C., A-40104 factor A as standard
Protocol: The compounds are conveniently tested against a typical gram-positive organism, Staphylococcus aureus, using a turbidometric assay on a semi-automated system (Autoturb Microbiological Assay System, Elanco) described by N. R. Kuzel and F. W. Kavanagh in J. Pharmaceut. Sci, 60 (5), 764 and 767 (1971). In testing these compounds, the following parameters were used: Staphylococcus aureus (H-Heatley) NRRL B-314 in a nutrient broth medium (pH 7), incubated for approximately 4 hours at 37° C. Test samples and A-40104 factor A, which is used as a standard, were dissolved in water. The standard was presented to the Autoturb carrousel at concentrations of 1.25, 2.50, 3.75, 5.00 and 6.25 mcg/ml. Test compounds were diluted to contain approximately 2.5 to 5.0 mcg of activity per ml, as presented to the carrousel. The units of activity of some of the typical compounds of this invention (R^2 =H in group tested) in this in vitro assay are summarized in Table I

Row | SMILES | Units of Activity [µg/mg]
1 | CC[C@]1(C)C[C@@H](OC(=O)CS[C@@H]2OC[C@@H](OC(C)=O)[C@@H](OC(C)=O)[C@H]2OC(C)=O)[C@]2(C)[C@H](C)CC[C@]3(CCC(=O)[C@H]32)[C@@H](C)[C@@H]1O | 480 to 500
2 | C=C[C@]1(C)C[C@@H](OC(=O)CO[C@@H]2OC[C@@H](O)[C@H](O)[C@H]2O)[C@]2(C)[C@H](C)CC[C@]3(CCC(=O)[C@H]32)[C@@H](C)[C@@H]1O [A-40104 factor A, reference compound] | 446 to 452
3 | CC[C@]1(C)C[C@@H](OC(=O)CO[C@H]2O[C@H](CO)[C@@H](O)[C@H](O)[C@H]2O)[C@]2(C)[C@H](C)CC[C@]3(CCC(=O)[C@H]32)[C@@H](C)[C@@H]1O [Example 2, 14-deoxy-14-[(α-D-glucopyranosyl)oxyacetoxy]-19,20-dihydromutilin] | < 100
4 | C=C[C@]1(C)C[C@@H](OC(=O)CS[C@@H]2OC[C@@H](OC(C)=O)[C@@H](OC(C)=O)[C@@H]2OC(C)=O)[C@]2(C)[C@H](C)CC[C@]3(CCC(=O)[C@H]32)[C@@H](C)[C@@H]1O [Example 20, 14-Deoxy-14-[(2,3,4-tri-O-acetyl-β-D-arabinopyranosyl)thioacetoxy]mutilin] | 430
5 | CC[C@]1(C)C[C@@H](OC(=O)CS[C@@H]2OC[C@@H](OC(C)=O)[C@@H](OC(C)=O)[C@@H]2OC(C)=O)[C@]2(C)[C@H](C)CC[C@]3(CCC(=O)[C@H]32)[C@@H](C)[C@@H]1O [Example 21, 14-Deoxy-14-[(2,3,4-tri-O-acetyl-β-D-arabinopyranosyl)thioacetoxy]-19,20-dihydromutilin] | 380
6 | C=C[C@]1(C)C[C@@H](OC(=O)CS[C@@H]2OC[C@@H](O)[C@@H](O)[C@@H]2O)[C@]2(C)[C@H](C)CC[C@]3(CCC(=O)[C@H]32)[C@@H](C)[C@@H]1O [Example 22, 14-Deoxy-14-[(β-D-arabinopyranosyl)thioacetoxyl]mutilin] | 380
7 | CC[C@]1(C)C[C@@H](OC(=O)CS[C@@H]2OC[C@@H](O)[C@@H](O)[C@@H]2O)[C@]2(C)[C@H](C)CC[C@]3(CCC(=O)[C@H]32)[C@@H](C)[C@@H]1O [Example 23, 14-deoxy-14-[(β-D-arabinopyranosyl)thioacetoxy]-19,20-dihydromutilin] | 420
8 | C=C[C@]1(C)C[C@@H](OC(=O)CS[C@H]2OC[C@@H](OC(C)=O)[C@@H](OC(C)=O)[C@H]2OC(C)=O)[C@]2(C)[C@H](C)CC[C@]3(CCC(=O)[C@H]32)[C@@H](C)[C@@H]1O [Example 36 α-anomer, 14-deoxy-14-[(2,3,4-tri-O-acetyl-α-D-ribopyranosyl)thioacetoxy]mutilin] | 50
9 | C=C[C@]1(C)C[C@@H](OC(=O)CS[C@H]2OC[C@@H](O)[C@@H](O)[C@H]2O)[C@]2(C)[C@H](C)CC[C@]3(CCC(=O)[C@H]32)[C@@H](C)[C@@H]1O [Example 37, 14-Deoxy-14-[(α-D-ribopyranosyl)thioacetoxy]-mutilin] | 350
10 | C=C[C@]1(C)C[C@@H](OC(=O)CS[C@@H]2OC[C@@H](O)[C@@H](O)[C@H]2O)[C@]2(C)[C@H](C)CC[C@]3(CCC(=O)[C@H]32)[C@@H](C)[C@@H]1O [Example 38, 14-Deoxy-14-[(β-D-ribopyranosyl)thioacetoxy]-mutilin] | 1070
11 | CC[C@]1(C)C[C@@H](OC(=O)CS[C@H]2OC[C@@H](O)[C@@H](O)[C@H]2O)[C@]2(C)[C@H](C)CC[C@]3(CCC(=O)[C@H]32)[C@@H](C)[C@@H]1O [Example 39, 14-Deoxy-14-[(α-D-ribopyranosyl)thioacetoxy]-19,20-dihydromutilin] | 430 to 433
12 | CC[C@]1(C)C[C@@H](OC(=O)CS[C@@H]2OC[C@@H](O)[C@@H](O)[C@H]2O)[C@]2(C)[C@H](C)CC[C@]3(CCC(=O)[C@H]32)[C@@H](C)[C@@H]1O [Example 40, 14-Deoxy-14-[(β-D-ribopyranosyl)thioacetoxy]-19,20-dihydromutilin] | 1500
